SMILES strings stand for the structures. Read-outs that look alike come from different tables or passages of the source.

Experiment [1] has as its system 2-AG-E-induced ear swelling. Description: effect of compound A on 2-AG-E-induced ear swelling. The experiment is classed as in vivo, mouse. On the procedure: Therefore, 2-arachidonoylglycerol ether (2-AG-E), the stable form of an endogenous ligand candidate 2-arachidonoylglycerol, and a specific CB2 agonist HU-308 were examined whether they directly induce ear swelling and compared to the ear swelling induced by arachidonic acid (AA).
Synthetically produced 2-AG-E and HU-308 were prepared with acetone to 1 or 10% (w/v) and 10% (w/v), respectively, and AA (Sigma) was prepared with acetone to 1.25% (w/v), on needed basis. 10 μL each of these substances was applied on each side of the left ear.
One hour later, 10 μL each of 10% (w/v) 2-AG-E was applied on each side of the left ear.

The next experiment has as its system antigen-induced asthma. Nature of the experiment: antigen-induced immediate type asthma, late-type asthma and airway hypersensitivity in guinea pigs. The experiment is classed as in vivo, guinea pig. To be noted: oral, compound A 10, 30, 100 mg/kg, positive controls 30 mg/kg. Here is the method:
The test compound was further diluted to 20, 6 and 2 mg/mL on needed basis. As positive controls, 6 mg/mL pranlukast hydrate (extracted from Onon™ (Ono Pharmaceutical Co., Ltd.)) and 6 mg/mL prednisolone (Sigma) were similarly prepared.
Sensitization: Using an ultrasonic nebulizer (NE-U12; OMRON), a 6-weeks old male Hartley guinea pig (Kudo, Co., Ltd.) was continuously inhaled with 1% OVA (ovalbumin; Sigma)-containing physiological saline for 10 minutes per day for 8 consecutive days.
Antigen challenge: One week after the last sensitization, 2% OVA was similarly inhaled for 5 minutes. 24 hours before and one hour after the OVA challenge, metyrapone-containing physiological saline (Aldrich, 10 mg/mL) was administered intravenously and 30 minutes before the OVA induction, pyrilamine-containing physiological saline (Sigma, 10 mg/kg) was administered intraperitoneally.
During the 8 days of sensitization, the test compound was given one hour before the sensitization. On the day of the antigen challenge, the test compound was given one hour before the challenge. As solvent controls, the vehicle was similarly administered in accordance with OVA induction and physiological saline induction.
As positive controls, pranlukast hydrate was administered one hour before the challenge, while prednisolone was administered 16 hours and 2 hours before the challenge. The animals were fasted 16 to 18 hours before the oral administration.
Using total respiratory function analysis system (Pulmos-I, M.I.P.S. Company), the pre value was measured. Subsequently, specific airway resistance (hereinafter referred to as sRaw) per 100 breathes was measured one minute and 2, 4, 5, 6, 7 and 8 hours after the OVA challenge, and further once between 22 to 26 hours after the challenge, respectively. The average was used as sRaw at each measured time point. The increment ratio of sRaw was calculated by the following formula.
Increment ratio of sRaw (%)=[(sRaw at each measured time point −sRaw before the challenge)/(sRaw before the challenge)]×100
Twenty-two to 26 hours after the antigen challenge, each of 0.0625, 0.125, 0.25, 0.5, 1 and 2 mg/mL solutions of physiological saline and acetylcholine (hereinafter referred to as ACh) were sequentially inhaled for one minute, until the sRaw was 2-fold or more to the baseline sRaw (sRaw after inhalation of physiological saline). Based on the ACh concentration and the concentration-resistance curve of sRaw, the ACh concentration required for the sRaw to achieve 100% increase from the baseline sRaw, i.e., PC100ACh was determined.

Experiment [2] has as its system IgE-dependent allergic dermatitis. To be noted: mouse, in vivo.
Procedure: Using a triphase dermatitis model that can be induced by antigen in mouse passively sensitizationed with IgE, the actions of CB2 inverse agonist and CB2 agonist were examined.
*Animal: 8 to 10 weeks-old Female BALB/c mouse (Japan SLC Inc.) was used.
Preparation of solvent: MC was dissolved in distilled water to prepare an aqueous 0.5% MC solution.
Anti-DNP IgE (antibody against DNP; Yamasa Corp.) was prepared to 15 μg/mL with physiological saline. 0.2 mL of the resulting solution was given through the caudal vein to the mouse.
Antigen preparation: 0.15% (w/v) of DNFB (2,4-dinitrofluorobenzene) was prepared in a mixed solution of acetone and olive oil (3:1, v/v) on needed basis.
Antigen application: 25 μl of the antigen solution was applied on each side of both of the ears 24 hours after the administration of the anti-DNP IgE.
From the next day of the antigen application to day 8 after the antigen application, 10 mL/kg test compound was orally administered once a day 9 times in total. On the day of antigen application, the test compound was administered one hour before the antigen application and the test compound was administered one hour before the measurement of the thickness of the ear on day 8 after the antigen application.
Before and 8 days after the antigen application, the thickness of the ear was measured with a dial thickness gauge (Mitutoyo Corp.). The difference between the value measured before the antigen application and at each time point was used as an index of swelling.
After the measurement of ear swelling, spleen and thymus were harvested to weigh their wet weights.
Experiment [3] deals with T1, CB2 (Homo sapiens, UniProt P34972). Further details: host or cells: CHO cells expressing CB2. To be noted: cited from earlier work.
Target sequence in this assay (P34972 whole entry, species assumed): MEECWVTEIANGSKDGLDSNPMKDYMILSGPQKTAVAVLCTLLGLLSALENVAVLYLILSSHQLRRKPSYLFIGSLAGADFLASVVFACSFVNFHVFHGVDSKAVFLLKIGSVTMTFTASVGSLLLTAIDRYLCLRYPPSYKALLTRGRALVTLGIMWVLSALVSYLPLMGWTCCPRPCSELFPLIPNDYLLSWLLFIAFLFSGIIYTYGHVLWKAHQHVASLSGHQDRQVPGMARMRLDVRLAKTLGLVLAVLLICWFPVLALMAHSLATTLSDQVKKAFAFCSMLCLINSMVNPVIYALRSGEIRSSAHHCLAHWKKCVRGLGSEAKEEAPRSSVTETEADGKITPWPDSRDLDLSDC
The target of experiment [4] is T1, CB2. Description: cAMP production in forskolin-stimulated hCB2-expressing CHO cells. The experiment is classed as cell-based. On the set-up: expressed in transfected cells; host or cells: CHO cells. (In general: Cyclic AMP is a second messenger, typically raised through Gs and lowered through Gi signalling.)
Target sequence in this assay (P34972 whole entry): as the sequence (P34972 whole entry, species assumed) above
Experiment [5] has as its system IgE-dependent allergic dermatitis. Description: murine IgE-dependent allergic dermatitis (triphase ear swelling). The experiment is classed as in vivo, mouse. The following applies: oral 10 mg/kg. Here is the method: A model was produced by passive sensitization of a mouse with IgE and repeated antigen challenge to trigger triphase (early phase, late phase and very late phase) dermatitis (Pharmacology, 60(2), 97-104, February 2000). Relation of mast cells and T cells, as well as invasion of eosinophils in local inflammatory sites is confirmed in these reactions.
In addition, as positive controls, similarly to the test compound, 1 mg/mL ketotifen fumarate (Sigma) and 3 mg/mL pranlukast hydrate (extracted from Onon™ (Ono Pharmaceutical Co., Ltd.)) were prepared. Pranlukast hydrate is used as a leukotriene inhibitor for therapeutic agents for asthma and allergic rhinitis. Ketotifen fumarate is used as a chemical mediator release suppressor for asthma, allergic rhinitis, eczema, dermatitis, urticaria, dermal pruritis and allergic conjunctivitis.
During the period from the antigen application day to the start of the dosing of the test compound, in place of the test compound, only the solvent was orally administered at 10 mL/kg once a day.
FIGS. 4 to 6 show the results of each measurement.

In the case of `CCCCCOc1c(OC)ccc2cc(C(=O)NCc3ccc4c(c3)OCO4)c(=O)[nH]c12` [Compound A, N-(benzo[1,3]dioxol-5-ylmethyl)-7-methoxy-2-oxo-8-pentyloxy-1,2-dihydroquinoline-3-carboxamide], in experiment [1] (oral 0.01, 0.1, 1, 10 mg/kg one hour before 2-AG-E, dose-dependent), the “ear swelling induced by the application of 10% 2-AG-E (AUC day 0 to day 8)” value was “suppressed ear swelling”. In addition, the “ear swelling induced by 10% 2-AG-E, significance” value in experiment [1] (oral 1 or 10 mg/kg) is “significant effect”. The “airway hypersensitivity (PC100ACh)” value in the experiment with antigen-induced asthma (22 to 26 hours after antigen challenge) was “suppressed”. Also, the “immediate type asthma response (sRaw immediately after antigen challenge)” value in the experiment on antigen-induced asthma is recorded as “suppressed”. For the same molecule, in the experiment on antigen-induced asthma, the “late asthmatic response (sRaw over 4 to 8 hours after antigen challenge)” value is listed as “suppressed”. Moreover, the “ear swelling, very late phase” value in experiment [2] and in experiment [5] (8 days after antigen application) was “significantly suppressed ear swelling” throughout. Moreover, the “forskolin-stimulated cAMP production” value at CB2 [3] is recorded as “elevate the production of cyclic adenosine-phosphate (cAMP)”. For the same molecule, the “effect on agonistic action of 2-AG-E” value on CB2 [4] is reported as “suppress the agonistic action of 2-AG-E”. Moreover, at CB2 [4] (CHO, read-out: Amount of cAMP production compared to control (ratio (%))), the cAMP production relative to control at 0.1 µM was determined as 430%. For the same molecule, in experiment [5] (24 hours after antigen application), the “ear swelling, late phase” value is on record as “significantly suppressed ear swelling”. Moreover, the “ear swelling, very late phase, delayed start of dosing” value in experiment [5] (administration started after the induction of the late phase) is “effect of compound A in the very late phase was observed”. In addition, the “ear swelling, early phase” value in experiment [5] (one hour after antigen application) was “significantly suppressed ear swelling”.

Source of the values: patent US20040171613A1, “Therapeutic agent for non-immediate type allergic diseases” (JAPAN TOBACCO INC., priority 2001, published 2004).
